A word on the EC50: it is the midpoint of the concentration-response curve. Low values mean a more potent agent, high ones a less potent agent.

One assay addresses T1, human TLR8 (Homo sapiens, UniProt Q9NR97).
T1 construct: host or cells: HEK-Blue hTLR8 (HEK293-derived) stably transfected cells
T1 sequence (Q9NR97 27-1041): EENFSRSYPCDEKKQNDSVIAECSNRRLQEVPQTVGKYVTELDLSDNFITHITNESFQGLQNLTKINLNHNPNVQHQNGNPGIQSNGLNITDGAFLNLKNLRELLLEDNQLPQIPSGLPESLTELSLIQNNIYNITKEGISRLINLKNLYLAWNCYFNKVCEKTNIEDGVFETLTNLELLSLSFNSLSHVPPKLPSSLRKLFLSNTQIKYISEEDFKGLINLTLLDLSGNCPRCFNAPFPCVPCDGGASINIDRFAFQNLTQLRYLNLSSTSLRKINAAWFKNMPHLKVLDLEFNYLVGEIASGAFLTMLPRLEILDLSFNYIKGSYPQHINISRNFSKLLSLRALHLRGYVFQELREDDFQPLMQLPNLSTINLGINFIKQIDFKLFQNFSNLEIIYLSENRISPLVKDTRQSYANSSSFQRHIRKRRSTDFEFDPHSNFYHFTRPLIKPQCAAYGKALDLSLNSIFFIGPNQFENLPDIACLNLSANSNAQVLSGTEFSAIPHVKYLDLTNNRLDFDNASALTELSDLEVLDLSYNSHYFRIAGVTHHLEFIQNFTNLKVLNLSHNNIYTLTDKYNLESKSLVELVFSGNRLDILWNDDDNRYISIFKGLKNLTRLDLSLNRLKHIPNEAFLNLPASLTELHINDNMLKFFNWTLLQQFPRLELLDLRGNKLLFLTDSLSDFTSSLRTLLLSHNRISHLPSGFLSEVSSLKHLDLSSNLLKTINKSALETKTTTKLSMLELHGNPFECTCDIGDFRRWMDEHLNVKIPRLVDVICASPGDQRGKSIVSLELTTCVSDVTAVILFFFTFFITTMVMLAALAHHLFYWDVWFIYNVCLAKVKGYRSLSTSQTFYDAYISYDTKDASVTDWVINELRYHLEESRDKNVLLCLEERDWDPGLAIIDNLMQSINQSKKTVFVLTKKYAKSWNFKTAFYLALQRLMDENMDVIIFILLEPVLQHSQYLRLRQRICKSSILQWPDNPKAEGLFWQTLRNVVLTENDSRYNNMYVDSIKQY
Put plainly: Activation of hTLR8 in HEK-Blue hTLR8 stably transfected cells. It counts as cell-based. Conditions: OD 620 nm, 6-16 hours. How it is done: The activation effect of the compound of the present application on the hTLR7 protein expressed in HEK-Blue™ hTLR7 stably transfected cells and hTLR8 protein expressed in HEK-Blue™ hTLR8 stably transfected cells were determined by the following experimental method:
The HEK-Blue assay medium was configured, HEK-Blue test dry powder was taken and 50 mL deendotoxin water were added to dissolve, then the resulting mixture was placed into the 37° C. incubator, and then filtered aseptically 10 minutes later. […]
The above-prepared compound was diluted 20-fold with a medium, and then 20 μL of the diluted compound were added to each well. HEK-Blue™ hTLR7 cells and HEK-Blue™ hTLR8 cells were taken separately, and the supernatant was removed first, then 2-5 mL pre-warmed PBS was added, placed in an incubator for 1-2 minutes, and the cells were gently pipetted, stained with trypan blue and counted. […]
The microplate reader reads at a wavelength of 620 nm. The corresponding OD value was obtained, and the EC50 value of the drug was calculated by Graphpad Prism. The activation effect of the compound of the present application and the control compound (prepared by the method of embodiment 21 of WO2016023511) on human TLR7 and TLR8 were determined by the above test, and the measured EC50 values were as shown in Table 1.

Assay [1] has as its system peripheral blood mononuclear cells (PBMC). Put plainly: Stimulation of the secretion of IFN-α from PBMC (HTRF). Conditions: lowest concentration giving cytokine level at least 3 times the minimum detection limit; 24 hours. Type of assay: cell-based, human. As for the experimental part: The ability of the compound of the present application to stimulate the secretion of IFN-α from PBMC was determined by the following experimental method:
Compounds were diluted in pure DMSO at a maximum concentration of 5 mM in 4-fold gradients for a total of 9 points. Then 4 μL of the compound were taken and added to 196 μL of RMPI 1640 medium containing 10% FBS and mixed. 50 μL per well were taken and added into a new 96-well cell culture plate.
All reagents were equilibrated to room temperature, and a 250 mL culture flask was taken and 60 mL blood and PBS+2% FBS were added therein, and the mixture was gently diluted by pipetting. […] The cells were resuspend with RMPI 1640 medium containing 10% FBS and counted, adjusted the amount of PBMC to 3.33×10^6 cells/mL, and 150 μL were taken and added to the cell culture plate to which the compound had been added, and cultured at 37° C. in a 5.0% CO2 incubator for 24 hours. […]
It was read in the HTRF mode on the PHERAStar. […]
The ability of the compound of the present application and the control compound (prepared by the method of embodiment 21 of WO2016023511) to stimulate the secretion of IFN-α from PBMC were determined by the above test, and the measured MEC values were as shown in Table 2.

In the case of `CCCCOc1nc(N)c2[nH]nc(Cc3ccc(CN4CCCC4)cc3)c2n1` [Embodiment 1, 5-Butoxy-3-(4-(pyrrolidin-1-ylmethyl)benzyl)-1H-pyrazolo[4,3-d]pyrimidin-7-amine], the EC50 on human TLR8 stood at 5.22 µM. In addition, the “MEC (Minimal Effective Concentration) to stimulate the secretion of IFN-α from PBMC” value in assay [1] is given as 0.28 nM.

Regarding `CCCCOc1nc(N)c2[nH]cc(Cc3ccc(CN4CCCC4)cc3)c2n1` [Embodiment 21 of WO2016023511], the EC50 at human TLR8 turned out to be 12.5 µM. For the same molecule, the “MEC (Minimal Effective Concentration) to stimulate the secretion of IFN-α from PBMC” value in assay [1] stood at 5.5 nM.

These data come from patent publication US11111249B2, “Heteroaryl-pyrazole derivative, and preparation method therefor and medical application thereof” (Jiangsu Hengrui Medicine Co., Ltd., priority 2017, dated 2021).
